Assay results: patent publication EP0151996A2, “Process for the Preparation of a double-chain plasminogen activator” (Asahi Kasei Kogyo Kabushiki Kaisha, priority 1984, dated 1985)
Read-outs that look alike come from different tables or passages of the source.

Columns and labels:
[1] = molecular target: T1, single-chain plasminogen activator (Homo sapiens, UniProt P00750); experiment: Influence of proteinase inhibitors on hydrolysis of Boc-Phe-Ser-Arg-MCA, single-chain form; type: biochemical
T1 construct: culturing human normal tissue derived cells such as cells derived from human embryonic kidney, intestines, lungs; endogenous in cells; host or cells: human normal tissue derived cells (e.g. human embryonic kidney or lung cells); secreted protein purified from the culture liquor in the presence of aprotinin
Method: (§1) To 50 µℓ of either each of the substances of this invention (100 U/mt) or urokinase (100 IU/mℓ) were added 50 µℓ of one of a number of solutions of various proteinase inhibitors and 300 µℓ of a 0.05 M tris-HCt buffer (pH 8.0) containing 0.1 M sodium chloride, and each reaction was effected at 37°C for 5 minutes. Thereafter, 100 µℓ of 0.1 mM of Boc-Phe-Ser-Arg-MCA (Peptide Institute, Inc.) was added, and each reaction was effected at 37°C.for 60 minutes. Thereafter, 0.5 mℓ of 20% acetic acid was added to terminate the reaction which was then measured for the formed aminomethylcoumarin at an excitation wavelength of 370 nm, a slit width of 2 nm, an emission wavelength of 460 nm and a slit width of 2 nm to determine the hydrolysis activity.
(§2) The concentrations (IC50) of the proteinase inhibitors which inhibit 50% of the activity of the substances of this invention were determined and the results are shown in Table 2.

[2] = molecular target: T2, double-chain plasminogen activator (Homo sapiens, UniProt P00750); experiment: Influence of proteinase inhibitors on hydrolysis of Boc-Phe-Ser-Arg-MCA, double-chain form; type: biochemical
T2 construct: endogenous in cells; host or cells: human normal tissue derived cells (e.g. human embryonic kidney or lung cells); secreted protein purified from the culture liquor and converted by enzyme (plasmin) treatment or incubation
Method: as §1, §2

T1 sequence (P00750 36-562): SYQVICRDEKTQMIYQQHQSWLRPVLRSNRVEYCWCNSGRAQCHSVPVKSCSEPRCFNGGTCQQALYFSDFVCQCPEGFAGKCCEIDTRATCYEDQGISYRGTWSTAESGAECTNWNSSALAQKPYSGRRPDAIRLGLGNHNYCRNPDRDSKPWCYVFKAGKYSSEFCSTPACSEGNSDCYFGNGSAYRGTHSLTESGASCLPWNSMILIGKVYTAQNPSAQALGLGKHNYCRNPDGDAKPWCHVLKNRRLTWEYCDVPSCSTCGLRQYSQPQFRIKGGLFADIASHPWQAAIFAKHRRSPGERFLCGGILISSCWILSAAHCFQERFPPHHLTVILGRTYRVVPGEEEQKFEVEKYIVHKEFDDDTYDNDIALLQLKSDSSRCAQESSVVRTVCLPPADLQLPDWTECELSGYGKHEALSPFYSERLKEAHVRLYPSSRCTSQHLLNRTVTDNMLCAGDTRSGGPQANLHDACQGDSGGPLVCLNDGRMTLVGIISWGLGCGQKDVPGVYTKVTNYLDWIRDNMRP
T2 sequence (P00750 311-562 limits assumed): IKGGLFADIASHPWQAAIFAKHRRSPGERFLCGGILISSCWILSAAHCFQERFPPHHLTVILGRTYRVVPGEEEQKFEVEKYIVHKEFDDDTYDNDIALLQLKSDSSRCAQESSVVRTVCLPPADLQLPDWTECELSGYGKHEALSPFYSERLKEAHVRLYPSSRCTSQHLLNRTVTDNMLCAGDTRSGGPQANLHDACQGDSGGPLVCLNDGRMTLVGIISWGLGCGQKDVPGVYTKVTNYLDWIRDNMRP
T2 sequence (P00750 36-310 partner limits assumed): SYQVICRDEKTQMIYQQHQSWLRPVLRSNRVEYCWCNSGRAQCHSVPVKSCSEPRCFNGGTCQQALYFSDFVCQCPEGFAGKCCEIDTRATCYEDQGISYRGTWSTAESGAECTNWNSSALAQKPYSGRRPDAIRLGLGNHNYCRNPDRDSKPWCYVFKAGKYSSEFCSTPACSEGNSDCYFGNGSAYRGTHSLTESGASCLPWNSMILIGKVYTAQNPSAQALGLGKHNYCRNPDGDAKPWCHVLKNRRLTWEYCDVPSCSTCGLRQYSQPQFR

| Structure (SMILES) | IC50 ([1]; Single-Chain Structure 100 U/mℓ, substrate Boc-Phe-Ser-Arg-MCA, 37°C 60 minutes, read-out: IC50) [µM] | IC50 ([2]; Double-Chain Structure 100 U/mℓ, substrate Boc-Phe-Ser-Arg-MCA, 37°C 60 minutes, read-out: IC50) [µM] | IC50 [1] [µM] | IC50 [2] [µM] |
| --- | --- | --- | --- | --- |
| CCOC(=O)c1ccc(OC(=O)CCCCCNC(=N)N)cc1 [FOY] | 17 | 92 | – | – |
| CC(=O)N[C@@H](CC(C)C)C(=O)N[C@@H](CC(C)C)C(=O)N[C@H](C=O)CCCNC(=N)N [Leupeptin] | – | – | 280 | 570 |
